In PubChem BioAssay (NCI):
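Results reflect a 48-hour exposure of cells in 96-well plates to compound at five concentrations. GI50 is the concentration that inhibits growth by half. TGI: concentration producing complete growth inhibition.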

Key:
Experiment in all cases: DTP human tumour cell line panel, 48 h
[1] = system: HCT-15 colon
[2] = system: MOLT-4 leukemia
[3] = system: SR leukemia
[4] = system: NCI/ADR-RES ovarian
[5] = system: OVCAR-5 ovarian
[6] = system: PC-3 prostate
[7] = system: SF-295 CNS
[8] = system: SK-OV-3 ovarian
[9] = system: HL-60(TB) leukemia
[10] = system: SF-268 CNS
[11] = system: A549 NSCLC
[12] = system: DU-145 prostate
[13] = system: UACC-62 melanoma
[14] = system: 786-0 renal
[15] = system: SN12C renal
[16] = system: K-562 leukemia
[17] = system: SNB-75 CNS
[18] = system: UO-31 renal
[19] = system: RPMI-8226 leukemia
[20] = system: COLO 205 colon
[21] = system: NCI-H522 lung
[22] = system: SW-620 colon
[23] = system: A498 renal
[24] = system: OVCAR-3 ovarian
[25] = system: MDA-MB-435
[26] = system: OVCAR-4 ovarian
[27] = system: EKVX NSCLC
[28] = system: M14 melanoma
[29] = system: U251 CNS
[30] = system: MCF7 breast
[31] = system: T-47D breast
[32] = system: TK-10 renal
[33] = system: HCT-116 colon
[34] = system: SK-MEL-28 melanoma
[35] = system: CCRF-CEM leukemia
[36] = system: NCI-H226 lung
[37] = system: HS 578T breast
[38] = system: NCI-H23 lung
[39] = system: ACHN renal
[40] = system: MDA-MB-468 breast
[41] = system: SK-MEL-5 melanoma
[42] = system: OVCAR-8 ovarian
[43] = system: HT29 colon
[44] = system: SNB-19 CNS
[45] = system: UACC-257 melanoma
[46] = system: MDA-MB-231 breast
[47] = system: SF-539 CNS
[48] = system: IGROV1 ovarian
[49] = system: HOP-62 NSCLC
[50] = system: MALME-3M melanoma
[51] = system: KM12 colon
[52] = system: HOP-92 NSCLC
[53] = system: CAKI-1 renal
[54] = system: BT-549 breast
[55] = system: HCC-2998 colon
[56] = system: LOX IMVI melanoma
[57] = system: RXF 393 renal
[58] = system: NCI-H460 lung

In the case of `NS(=O)(=O)c1ccc(-n2cc(-c3cccc(NC(=O)c4ccc(Cl)c(C(F)(F)F)c4)c3)nn2)cc1`, the GI50 [1] is reported as 7.8 µM, the TGI [1] is reported as 68.5 µM and the GI50 [2] is reported as 3.1 µM. The TGI [2] was > 100 µM, the GI50 [3] was 3.9 µM and the TGI [3] was > 100 µM. The GI50 [4] was 80.7 µM and the TGI [4] was > 100 µM.
`CC1(C)CC[C@]2(C(=O)Nc3ccc(F)cc3)CC[C@]3(C)C(=CCC4[C@@]5(C)C[C@@H](O)[C@H](O)[C@@](C)(CO)C5CC[C@]43C)C2C1` (some centres not stated) showed a GI50 [5] of 14.6 µM, a TGI [5] of 28.4 µM and a GI50 [1] of 13.2 µM. It also gave a TGI [1] of 27.4 µM, a GI50 [6] of 12.8 µM and a TGI [6] of 38.5 µM. The GI50 [7] was 13.9 µM, the TGI [7] was 28.6 µM and the GI50 [8] was 20.3 µM. The TGI [8] was 51 µM, the GI50 [9] was 14.2 µM and the TGI [9] was 38.8 µM. The GI50 [10] was 22.6 µM, the TGI [10] was 89 µM and the GI50 [11] was 29.5 µM. The TGI [11] was > 100 µM, the GI50 [12] was 20.1 µM and the TGI [12] was 45.6 µM. It also gave a GI50 [13] of 9.17 µM, a TGI [13] of 21.9 µM and a GI50 [14] of 15.5 µM. The TGI [14] was 30.4 µM, the GI50 [15] was 14.8 µM and the TGI [15] was 29.6 µM. It also gave a GI50 [16] of 17.8 µM, a TGI [16] of 62.8 µM and a GI50 [17] of 13.5 µM. It also gave a TGI [17] of 61 µM, a GI50 [18] of 12.8 µM and a TGI [18] of 29.2 µM. For the same compound, the GI50 [19] was 14.9 µM, the TGI [19] was 64.6 µM and the GI50 [20] was 16.7 µM. The TGI [20] was 33.6 µM, the GI50 [21] was 17.6 µM and the TGI [21] was 40.1 µM. For the same compound, the GI50 [22] was 25.8 µM, the TGI [22] was > 100 µM and the GI50 [23] was 20.8 µM. For the same compound, the TGI [23] was 45.6 µM, the GI50 [24] was 16.3 µM and the TGI [24] was 31.2 µM. The GI50 [25] was 14.4 µM, the TGI [25] was 28.8 µM and the GI50 [26] was 16.8 µM. For the same compound, the TGI [26] was 46.5 µM, the GI50 [27] was 17.2 µM and the TGI [27] was 47.2 µM. For the same compound, the GI50 [28] was 15.7 µM, the TGI [28] was 31.5 µM and the GI50 [29] was 14.9 µM. It also gave a TGI [29] of 30 µM, a GI50 [30] of 13 µM and a TGI [30] of 29.5 µM. The GI50 [31] was 12.9 µM, the TGI [31] was 32.1 µM and the GI50 [32] was 22.8 µM. It also gave a TGI [32] of 54.1 µM, a GI50 [2] of 7.51 µM and a TGI [2] of 30.6 µM. It also gave a GI50 [33] of 13.1 µM, a TGI [33] of 26 µM and a GI50 [34] of 15.6 µM. For the same compound, the TGI [34] was 31.6 µM, the GI50 [35] was 20 µM and the TGI [35] was 90.6 µM. The GI50 [36] was 13.5 µM, the TGI [36] was 34.3 µM and the GI50 [37] was 20.5 µM. The TGI [37] was 76.9 µM, the GI50 [38] was 17.9 µM and the TGI [38] was 39.3 µM. For the same compound, the GI50 [39] was 14.8 µM, the TGI [39] was 28.1 µM and the GI50 [40] was 13.5 µM. The TGI [40] was 31.3 µM, the GI50 [41] was 14.7 µM and the TGI [41] was 27.8 µM. The GI50 [42] was 29 µM, the TGI [42] was > 100 µM and the GI50 [43] was 15.6 µM. For the same compound, the TGI [43] was 30.5 µM, the GI50 [44] was 23.8 µM and the TGI [44] was > 100 µM. For the same compound, the GI50 [3] was 10.3 µM, the TGI [3] was 37.3 µM and the GI50 [45] was 18.4 µM. It also gave a TGI [45] of 47.9 µM, a GI50 [46] of 14.2 µM and a TGI [46] of 28.7 µM. For the same compound, the GI50 [47] was 14.8 µM, the TGI [47] was 28.3 µM and the GI50 [48] was 15.8 µM. The TGI [48] was 34.1 µM, the GI50 [49] was 18.8 µM and the TGI [49] was 43.5 µM. For the same compound, the GI50 [50] was 16 µM, the TGI [50] was 29.9 µM and the GI50 [51] was 17.5 µM. It also gave a TGI [51] of 35.7 µM, a GI50 [52] of 13.2 µM and a TGI [52] of 29 µM. It also gave a GI50 [53] of 11.1 µM, a TGI [53] of 39.6 µM and a GI50 [54] of 13.1 µM. It also gave a TGI [54] of 26.8 µM, a GI50 [55] of 16.7 µM and a TGI [55] of 31.1 µM. It also gave a GI50 [56] of 15.6 µM, a TGI [56] of 30.7 µM and a GI50 [57] of 10.9 µM. It also gave a TGI [57] of 23.3 µM, a GI50 [58] of 15.4 µM and a TGI [58] of 33.8 µM.
